Values of other authors, collected in patent publication US20090048316A1, “Pharmaceutical composition comprising candesartan cilexetil” (priority 2007, published 2009).
Where two headings read alike, the source gives them in different places.

- solubility (in methanol): practically insoluble
- solubility (in water): practically insoluble
SMILES: CCOc1nc2cccc(C(=O)OC(C)OC(=O)OC3CCCCC3)c2n1Cc1ccc(-c2ccccc2-c2nnn[nH]2)cc1 (racemic) [Candesartan cilexetil, (±)-1-[[(cyclohexyloxy)carbonyl]oxy]ethyl-2-ethoxy-1-[[2′-(1H-tetrazol-5-yl)[1,1′biphenyl]-4-yl]methyl]-1H-benzimidazole-7-carboxylate]
